The source of these data is ChEMBL document CHEMBL1154993, “A cyclohexanonyl bromophenol from the red alga Symphyocladia latiuscula” (J Nat Prod, 2000).

pIC50: −log10 of the molar value.

The assay relates to Radical scavenging activity. As to the kind of experiment: Antioxidant activity assessed as DPPH radical scavenging activity after 30 mins by spectrophotometer. Type of assay: functional. In general terms: The DPPH test is a chemical assay of radical scavenging.

In the case of `OCc1c(Br)c(O)c(O)c(Br)c1Br`, the pIC50 (usually the IC50 on a negative log10 scale, so that one unit is a factor of ten) was 5.12.
The result for `O=C1O[C@H]([C@@H](O)CO)C(O)=C1O` [ASCORBIC ACID] reads 4.82; that for `O=C1CCCC[C@@H]1Cc1c(Br)c(O)c(O)c(Br)c1Br` [SYMPHYOKETONE], 5.07.
